Measurements as given in the CheMixHub drug solubility set.

Test: xn = mol fraction of the nth substance listed, in the solute-free solvent

CN1CCC(N(Cc2cccs2)c2ccccc2)CC1 + CC(C)O + O
solubility (g/100 g solution)
Settings | 278.15 K | 283.15 K | 288.15 K | 293.15 K | 298.15 K | 303.15 K | 308.15 K | 313.15 K | 318.15 K | 323.15 K
x2 = 0.03225 | 0.141 | 0.15 | 0.16 | 0.173 | 0.19 | 0.208 | 0.229 | 0.249 | 0.274 | 0.301
x2 = 0.06974 | 0.326 | 0.345 | 0.365 | 0.394 | 0.428 | 0.466 | 0.508 | 0.551 | 0.601 | 0.656
x2 = 0.1139 | 0.573 | 0.606 | 0.64 | 0.689 | 0.746 | 0.809 | 0.879 | 0.952 | 1.03 | 1.13
x2 = 0.1666 | 0.834 | 0.881 | 0.933 | 1.01 | 1.09 | 1.18 | 1.28 | 1.39 | 1.51 | 1.64
x2 = 0.2307 | 1.04 | 1.1 | 1.18 | 1.28 | 1.4 | 1.51 | 1.64 | 1.78 | 1.95 | 2.12
x2 = 0.3103 | 1.24 | 1.33 | 1.43 | 1.54 | 1.67 | 1.81 | 1.96 | 2.11 | 2.3 | 2.52
x2 = 0.4117 | 1.4 | 1.51 | 1.62 | 1.75 | 1.93 | 2.12 | 2.32 | 2.54 | 2.77 | 3.04
x2 = 0.5454 | 1.55 | 1.68 | 1.82 | 1.99 | 2.15 | 2.34 | 2.58 | 2.83 | 3.11 | 3.42
x2 = 0.7297 | 1.61 | 1.77 | 1.95 | 2.14 | 2.35 | 2.6 | 2.85 | 3.13 | 3.41 | 3.74

Nc1cccc2ccncc12 + CC(C)O + O
solubility (g/100 g solution)
Settings | 278.15 K | 283.15 K | 288.15 K | 293.15 K | 298.15 K | 303.15 K | 308.15 K | 313.15 K | 318.15 K | 323.15 K
x2 = 0.03225 | 0.0706 | 0.0813 | 0.0925 | 0.109 | 0.123 | 0.142 | 0.165 | 0.191 | 0.218 | 0.252
x2 = 0.06974 | 0.141 | 0.163 | 0.184 | 0.215 | 0.244 | 0.279 | 0.323 | 0.372 | 0.424 | 0.489
x2 = 0.1139 | 0.235 | 0.271 | 0.306 | 0.357 | 0.405 | 0.463 | 0.534 | 0.617 | 0.702 | 0.808
x2 = 0.1666 | 0.339 | 0.393 | 0.445 | 0.519 | 0.59 | 0.676 | 0.78 | 0.902 | 1.03 | 1.18
x2 = 0.2307 | 0.393 | 0.466 | 0.559 | 0.658 | 0.767 | 0.883 | 1.02 | 1.18 | 1.36 | 1.58
x2 = 0.3103 | 0.5 | 0.587 | 0.696 | 0.819 | 0.952 | 1.09 | 1.26 | 1.47 | 1.68 | 1.95
x2 = 0.4117 | 0.573 | 0.687 | 0.826 | 0.98 | 1.13 | 1.3 | 1.5 | 1.75 | 2.02 | 2.35
x2 = 0.5454 | 0.633 | 0.765 | 0.915 | 1.08 | 1.25 | 1.46 | 1.7 | 1.97 | 2.3 | 2.69
x2 = 0.7297 | 0.576 | 0.73 | 0.906 | 1.1 | 1.31 | 1.58 | 1.84 | 2.16 | 2.51 | 2.94
